Earlier results on 1 compound are cited in patent publication US8163702B2, “Treatment of melanoma” (SciClone Pharmaceuticals, Inc., priority 2006, dated 2012).

One data set concerns thymocyte and lymphocyte. Conditions: cited from earlier work.
For data set [1] the following is noted: 5-FU-immune-suppressed animals; immunization with sheep red blood cells; cited from earlier work.

The structures appear in SMILES notation.

As for `N[C@H](CCC(=O)N[C@@H](Cc1c[nH]c2ccccc12)C(=O)O)C(=O)O` [SCV-07, γ-D-glutamyl-L-tryptophan], the “Con-A-induced thymocyte and lymphocyte proliferation” value with thymocyte and lymphocyte is on record as “increases”. In addition, in data set [1], the immunostimulatory effect entry was “strong immunostimulatory effect”.
